Drawing on US20070287674A1, “New treatment of diabetes mellitus” (HEJ RESEARCH INSTITUTE OF CHEMISTRY, priority 2006, published 2007), this text covers IC50 for two compounds.

Like-named read-outs stand apart in the source and are kept apart here.

The test has as its target α-glucosidase (E.C.3.2.1.20). The test can be described thus: α-Glucosidase enzyme inhibition assay (PNP-G substrate, spectrophotometric). Format: biochemical. The procedure:
α-Glucosidase (E.C.3.2.1.20) enzyme inhibition assay was performed according to the slightly modified method of Matsui et al. α-glucosidase (E.C.3.2.1.20) from Saccharomyces species, purchased from Wako Pure Chemical Industries Ltd. (Wako 076-02841). The enzyme inhibition was measured spectrophotometrically at pH 6.9 and at 37° C. using 0.7 mM p-nitrophenyl-α-D-glucopyranoside (PNP-G) as a substrate and 500 m units/mL enzyme, in 50 mM sodium phosphate buffer containing 100 mM NaCl. […] The increment in absorption at 400 nm, due to the hydrolysis of PNP-G by α-glucosidase, was monitored continuously on microplate spectrophotometer (Spectra Max Molecular Devices, USA).) [T. Matsui, C. Yoshimoto, K. Osajima, T. Oki, and Y. Osajima. Biosci. Biotech. Biochem., 1996, 60, 2019].

The mark [1] stands for this setting: in vitro, pH 6.9, 37° C., 0.7 mM PNP-G substrate, 500 m units/mL enzyme, read-out: IC50 ± SEM.
The mark [2] stands for this setting: running text b24, unit inferred, read-out: IC50 (inhibitory effect on the enzyme).

As usually defined, the IC50 is the concentration that inhibits the measured activity by half. As to `C[C@@]12CCC[C@@](C)(C(=O)O[C@@H]3O[C@H](CO)[C@@H](O)[C@H](O)[C@H]3O)[C@H]1CC[C@@]13C[C@@H](CC[C@H]12)[C@@](O)(CO)C3` (single isomer, unassigned; ent-1) [Compound 1, 16, β-17-hydroxy-ent-1-α-auzan 19-O-D-glucopyranosyl ester], the IC50 under setting [1] amounted to 407 ± 20 µM and the IC50 under setting [2] came to 407 ± 20 µM.
For the compound `C[C@@]12CCC[C@@](C)(C(=O)O)[C@H]1CC[C@@]13C[C@@H](CC[C@H]12)[C@@](O)(CO)C3` (single isomer, unassigned; ent-16) [Compound 2, ent-16,17-dihydroxy-(−)-kauran-19-oic acid], the IC50 runs as follows: under setting [1], 62.2 µM; under setting [2], 62.2 ± 0.008 µM.
